Source: patent US8765754B2, “Pyrrolotriazine compounds” (Locus Pharmaceuticals, Inc., priority 2009, dated 2014)

How the values were obtained:
[1] = Pharmacokinetic profile in rats; assay type: in vivo; conditions: rat, plasma, fasted male Sprague-Dawley rats
Description: Using fasted male Sprague-Dawley rats (250-400 gram; Hilltop Labs), the plasma concentration of the compound of the present invention after intravenous administration at a dose of 1 mg/kg and the plasma concentration after oral gavage administration at a dose of 2 mg/kg were measured. The blood samples (˜0.25 mL) was collected from a rat jugular vein under an unanesthetized condition 1, 5, 15, and 30 minutes, and 1, 2, 4, 8, 12 and 24 hours after intravenous administration, and 5, 15 and 30 minutes, and 1, 1.5, 2, 4, 8, 12 and 24 hours after oral administration. Then the blood samples placed into chilled tubes containing sodium heparin and kept on ice until centrifugation. The samples were centrifuged at a temperature of 4° C. at 13,000 rpm for 5 minutes and the supernatant was collected as plasma. The concentration of the compound in plasma was measured with LC/MS/MS (Acquity HPLC coupled with a quattromicro mass spectrometer, Waters Corp.). From the obtained plasma concentration, an area under the curve (AUC, ng·h/ml), a maximum plasma concentration.(Cmax, μg/mL) and a clearance (CL, mL/hr/kg) were calculated. In addition, Bioavailability (B.A.) of the compound of the present invention was calculated from AUC in oral administration and AUC in intravenous administration.

Lck = Lck (Homo sapiens, UniProt P06239); assay: Z'-lyte kinase assay (FRET), inhibitory activity to other kinases: Lck; assay type: biochemical; conditions: selectivity ratio, Biological Example 1 and 2
Lck, sequence (P06239 whole entry): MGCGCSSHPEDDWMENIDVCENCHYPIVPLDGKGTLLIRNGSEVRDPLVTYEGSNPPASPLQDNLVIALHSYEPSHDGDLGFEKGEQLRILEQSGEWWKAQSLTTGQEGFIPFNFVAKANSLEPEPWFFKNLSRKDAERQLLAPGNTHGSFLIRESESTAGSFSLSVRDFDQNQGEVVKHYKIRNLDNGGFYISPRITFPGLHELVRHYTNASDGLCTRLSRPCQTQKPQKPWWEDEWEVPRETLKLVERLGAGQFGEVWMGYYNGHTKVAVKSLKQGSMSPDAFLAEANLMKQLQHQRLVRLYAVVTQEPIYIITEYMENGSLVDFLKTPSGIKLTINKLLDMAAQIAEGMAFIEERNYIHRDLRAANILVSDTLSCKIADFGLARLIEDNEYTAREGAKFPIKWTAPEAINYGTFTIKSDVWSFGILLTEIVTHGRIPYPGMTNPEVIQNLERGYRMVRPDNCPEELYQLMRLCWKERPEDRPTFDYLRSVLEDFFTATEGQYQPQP
Description: (§1) Btk tyrosine phosphorylation reaction was carried out using Z′-lyte kinase assay kit—Tyr 1 peptide (Invitrogen) consisting of the following reagent (Tyr 1 peptide, Thy 1 phospho-peptide, 5× kinase buffer, ATP, development regent B, development buffer, and stop reagent) and Btk. Btk activity was determined using fluorescence resonance energy transfer (FRET) method.
The diluted solution (5 μl) of the compound of the present invention in dimethyl sulfoxide (DMSO; Sigma) was added to 96-well assay plates. Additionally, the peptide/kinase solution (10 μl) composed of DL-Dithiothreitol (DTT; 2 mM), Tyr 1 peptide (2 μM), kinase buffer and Btk (5 nM, Invitrogen) was added to the assay plates and the reaction solution was pre-incubated for 20 minutes at 25° C. […] The fluorescence emission of each well was measured on a fluorescence plate reader at a wavelength of 445 nm and 520 nm. The phospholyration ratio was determined by the emission rate of the fluorescence at 445 nm to 520 nm according to manufacturer's instruction.
The inhibition rate (%) of the compounds of the present invention was calculated with the following formula: Inhibition rate(%)=1−{(AX−AB)/(AC−AB)}×100 AX: phospholyration ratio at addition of the compound of the present invention AB: phospholyration ratio at blank AC: phospholyration ratio at only addition of DMSO […]

LynA = LynA (Homo sapiens, UniProt P07948); assay: Z'-lyte kinase assay (FRET), inhibitory activity to other kinases: LynA; assay type: biochemical; conditions: selectivity ratio, Biological Example 1 and 2
LynA, sequence (P07948 whole entry): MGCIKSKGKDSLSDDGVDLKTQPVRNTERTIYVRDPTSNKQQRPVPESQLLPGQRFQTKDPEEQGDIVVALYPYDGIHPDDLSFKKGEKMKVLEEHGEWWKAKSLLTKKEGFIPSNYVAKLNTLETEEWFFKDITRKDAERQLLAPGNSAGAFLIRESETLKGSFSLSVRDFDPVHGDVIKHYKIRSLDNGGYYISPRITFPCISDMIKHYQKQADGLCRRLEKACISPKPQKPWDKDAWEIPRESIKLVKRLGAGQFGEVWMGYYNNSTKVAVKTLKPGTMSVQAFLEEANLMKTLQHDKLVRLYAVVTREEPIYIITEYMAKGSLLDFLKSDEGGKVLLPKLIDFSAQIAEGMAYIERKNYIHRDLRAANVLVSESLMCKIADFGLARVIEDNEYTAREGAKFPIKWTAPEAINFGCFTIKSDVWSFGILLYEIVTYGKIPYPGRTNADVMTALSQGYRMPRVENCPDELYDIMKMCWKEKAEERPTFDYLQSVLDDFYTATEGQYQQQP
Description: as §1
(§2) The diluted solution (5 μl) of the compound of the present invention in dimethyl sulfoxide (DMSO; Sigma) was added to 96-well assay plates. Additionally, the peptide/kinase solution (10 μl) composed of DL-Dithiothreitol (DTT; 2 mM), Tyr 1 peptide (2 μM), kinase buffer and Btk (5 nM, Invitrogen) was added to the assay plates and the reaction solution was pre-incubated for 20 minutes at 25° C. Then, the ATP solution (5 μl) composed of adenosine triphosphate (ATP; 36 μM) and kinase buffer was added and the reaction solution was incubated for 1 hour at 25° C. After the incubation, the development solution B (10 μl) composed of development reagent B and development buffer was added and the reaction solution was incubated for 1 hour at 25° C. The stop solution (10 μl) was added to each well to arrest the enzyme reaction. The fluorescence emission of each well was measured on a fluorescence plate reader at a wavelength of 445 nm and 520 nm. The phospholyration ratio was determined by the emission rate of the fluorescence at 445 nm to 520 nm according to manufacturer's instruction.
(§3) The inhibition rate (%) of the compounds of the present invention was calculated with the following formula: Inhibition rate(%)=1−{(AX−AB)/(AC−AB)}×100 AX: phospholyration ratio at addition of the compound of the present invention AB: phospholyration ratio at blank AC: phospholyration ratio at only addition of DMSO
(§4) The value of 50% inhibition rate (IC50) for the compound of the present invention was determined from inhibition curve based on inhibition rate at each concentration of the compound of the present invention.
(§5) Research for inhibitory activity to other kinases (such as Lck, Fyn, LynA) was performed in similar procedure above described.

Fyn = Fyn (Homo sapiens, UniProt P06241); assay: Z'-lyte kinase assay (FRET), inhibitory activity to other kinases: Fyn; assay type: biochemical; conditions: selectivity ratio, Biological Example 1 and 2
Fyn, sequence (P06241 whole entry): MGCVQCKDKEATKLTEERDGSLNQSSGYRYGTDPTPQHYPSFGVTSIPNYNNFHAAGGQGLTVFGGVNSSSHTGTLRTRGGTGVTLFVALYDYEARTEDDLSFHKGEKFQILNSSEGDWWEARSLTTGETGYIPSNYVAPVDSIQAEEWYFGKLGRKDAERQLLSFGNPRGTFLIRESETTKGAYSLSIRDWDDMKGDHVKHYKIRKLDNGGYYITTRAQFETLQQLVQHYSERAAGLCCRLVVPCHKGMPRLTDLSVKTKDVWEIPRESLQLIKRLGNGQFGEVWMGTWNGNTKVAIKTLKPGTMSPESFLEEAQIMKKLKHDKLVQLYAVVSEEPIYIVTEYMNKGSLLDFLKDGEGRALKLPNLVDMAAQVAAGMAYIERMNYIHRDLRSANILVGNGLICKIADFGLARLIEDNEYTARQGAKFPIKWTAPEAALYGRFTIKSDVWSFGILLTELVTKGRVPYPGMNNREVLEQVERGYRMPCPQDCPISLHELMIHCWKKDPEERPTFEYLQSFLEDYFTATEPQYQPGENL
Description: as §1, §2, §3, §4, §5

Btk = molecular target: T1, Btk (Homo sapiens, UniProt Q06187); assay: Btk in vitro radioassay (33P-ATP, Poly(Glu,Tyr)); assay type: biochemical; conditions: Btk inhibition; reported after Biological Example 2; read-out: IC50 over Btk
T1 construct: purchased Invitrogen
T1 sequence (Q06187 whole entry): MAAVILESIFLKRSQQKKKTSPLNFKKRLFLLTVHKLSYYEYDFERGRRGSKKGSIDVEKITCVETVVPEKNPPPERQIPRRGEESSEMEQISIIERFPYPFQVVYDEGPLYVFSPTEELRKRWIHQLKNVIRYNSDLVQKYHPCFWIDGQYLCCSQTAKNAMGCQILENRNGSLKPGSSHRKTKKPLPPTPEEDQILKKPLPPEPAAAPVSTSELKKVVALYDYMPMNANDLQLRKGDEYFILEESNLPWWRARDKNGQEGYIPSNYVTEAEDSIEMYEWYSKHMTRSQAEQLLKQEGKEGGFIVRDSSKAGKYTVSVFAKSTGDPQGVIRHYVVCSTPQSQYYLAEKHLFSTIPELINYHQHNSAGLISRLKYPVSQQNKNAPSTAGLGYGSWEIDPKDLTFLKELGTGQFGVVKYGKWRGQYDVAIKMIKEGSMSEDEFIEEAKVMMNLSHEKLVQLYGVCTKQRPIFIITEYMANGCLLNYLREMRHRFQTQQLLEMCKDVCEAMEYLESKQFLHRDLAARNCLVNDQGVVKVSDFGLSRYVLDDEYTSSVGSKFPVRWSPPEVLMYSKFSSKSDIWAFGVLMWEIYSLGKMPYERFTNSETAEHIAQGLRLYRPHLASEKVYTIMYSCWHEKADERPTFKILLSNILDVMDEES
Description: The diluted solution (1 μl) of the compound of the present invention in DMSO was added to 96-well assay plates. Additionally, Btk kinase solution (39 μL) composed of Btk (1.3 nM, Invitrogen), Tris (12.5 mM; pH7.5), Triton X-100 (0.01%), glycerol (5%), MgCl2 (10 mM), EGTA (1 mM), glycerol 2-phosphate (5 mM), DTT (2 mM) and sodium orthovanadate (0.5 mM) was added to 96-well assay plate. The solution was pre-incubated for 20 minutes at 30° C. Then ATP/peptide solution (10 μL) composed of Poly (Glu, Tyr) (0.20 mg/mL, Sigma) and ^33P-ATP (47 μM, PerkinElmer) was added. After incubating at 30° C. for 12 minutes, the reaction was stopped by adding 10 μL of 0.6M phosphoric acid to each well. The each reaction from the 96-well assay plate was transferred to 96-well filter plate. The reaction mixture was analyzed on the radioactive survey equipment (TopCount NXT HTS; PerkinElmer) to read count efficiency.
The inhibition rate (%) of the compound of the present invention was calculated with the following formula: Inhibition rate(%)={1−(counts−B100)/(B0−B100)}×100 B0: average counts for 0% inhibition control (i.e., no compound) B100: average counts for 100% inhibition control (i.e., no enzyme)
The value of 50% inhibition rate (IC50) for the compounds of the present invention was determined from inhibition curve based on inhibition rate at each concentration of the compound of the present invention.

mouse splenocytes = assay: B cell activation assay using mouse splenocytes (anti-IgM stimulated CD69 in CD19 positive cells, FACS); assay type: cell-based; conditions: Splenocyte; anti-mouse IgM stimulation 6 hours; CD69 MFI in CD19 positive cells
Description: Splenocytes collected from C57B1/6 or Balb/c mice were suspended in RPMI 1640 (Invitrogen), supplemented with 10% fetal bovine serum (FBS). The diluted solution (1 μl) of the compound of the present invention and the suspension of the mouse splenocytes (49 μl) were added to 96-well plate and incubated at 37° C. for 60 min. Cells were stimulated with 10 μl of anti-mouse IgM (Jackson Immunoresearch). Samples were stimulated at 37° C. for 6 hours, 5% CO2 and treated with 10 μl/well Fc block (BD Biosciences) for 15 min on ice in the dark. The diluted solution (10 μl) of antibody (1:2:2 mix of each, Allphycocyanin (APC)-labeled anti-mouse CD3e, Phycoerythrin (PE)-labeled anti-mouse CD19 and Fluorescein Isothiocyanate (FITC) labeled anti-mouse CD69) was added to 96-well collection plate. Samples were transferred to the 96-well collection plate and incubated for 30 min on ice in the dark. Samples were treated with Lyse/Fix solution (1.6 ml/well, BD biosciences) at 37° C. in collection plates and were incubated for at 37° C. for 15 min. Cells were collected by centrifugation at 2000 rpm for 10 min repeatedly, resuspended in stain buffer (BD Biosciences) and analyzed by FACS to determine mean fluorescence intensity (MFI) of CD69 in the CD19 positive cell population. […]

[2] = oral 2 mg/kg / i.v. 1 mg/kg study, route of the value not given

Compound | LynA[IC50]/Btk[IC50] (LynA) | Fyn[IC50]/Btk[IC50] (Fyn) | IC50 (Btk) [µM] | further results
C=CC(=O)N1CCCC(c2c(Cl)c(-c3ccc(Oc4cccc(Cl)c4)c(OC)c3)c3c(N)ncnn23)C1 (stereo not drawn) [Example 32, 1-(3-(4-amino-6-chloro-5-(4-(3-chlorophenoxy)-3-methoxyphenyl)pyrrolo[2,1-f][1,2,4]triazin-7-yl)piperidin-1-yl)prop-2-en-1-one] | 1389 | 7222 | 0.002 | clearance ([1]; intravenous, oral 2 mg/kg / i.v. 1 mg/kg study): 17.8 mL/day/kg; bioavailability ([1]; from AUC oral 2 mg/kg and AUC i.v. 1 mg/kg, read-out: B.A. (Bioavailability)): 24%; AUC [1, 2]: 652 ng·h/mL; Cmax [1, 2]: 227 ng/mL; Lck[IC50]/Btk[IC50] (Lck): 161; IC50 (mouse splenocytes): 0.13 µM
COc1cccc(-c2c(CCCN3CCCC3)c(-c3ccc(Oc4ccccc4)cc3)c3c(N)ncnn23)c1 [Example 16(2), 7-(3-methoxyphenyl)-5-(4-phenoxyphenyl)-6-(3-(pyrrolidin-1-yl)propyl)pyrrolo[2,1-f][1,2,4]triazin-4-amine] |  |  | 0.065 | 
C=CC(=O)N1CCCC(c2c(Cl)c(-c3ccc(Oc4ccc(Cl)c(Cl)c4)c(OC)c3)c3c(N)ncnn23)C1 (stereo not drawn) [Example 32(1), 1-(3-(4-amino-6-chloro-5-(4-(3,4-dichlorophenoxy)-3-methoxyphenyl)pyrrolo[2,1-f][1,2,4]triazin-7-yl)piperidin-1-yl)prop-2-en-1-one] | 10000 | >10000 | 0.002 | 
COc1cccc(-c2c(CCCN(C)C)c(-c3ccc(Oc4ccccc4)cc3)c3c(N)ncnn23)c1 [Example 16(1), 6-(3-(dimethylamino)propyl)-7-(3-methoxyphenyl)-5-(4-phenoxyphenyl)pyrrolo[2,1-f][1,2,4]triazin-4-amine] |  |  | 0.0058 | 
COc1cc(-c2c(C3CCNCC3)c(C3CCCC3)n3ncnc(N)c23)ccc1Oc1ccc(Cl)c(Cl)c1 [Example 25(1), 7-cyclopentyl-5-(4-(3,4-dichlorophenoxy)-3-methoxyphenyl)-6-(piperidin-4-yl)pyrrolo[2,1-f][1,2,4]triazin-4-amine] |  |  | 0.062 | 
CCN(CC)CC(=O)N1CCC(c2c(CCCN3CCCC3)c(-c3ccc(Oc4ccc(Cl)c(Cl)c4)c(OC)c3)c3c(N)ncnn23)CC1 [Example 21, 1-(4-(4-amino-5-(4-(3,4-dichlorophenoxy)-3-methoxyphenyl)-6-(3-(pyrrolidin-1-yl)propyl)pyrrolo[2,1-f][1,2,4]triazin-7-yl)piperidin-1-yl)-2-(diethylamino)ethanone] |  |  | 0.016 | 
COc1cccc(-c2c(CCCN3CCCC3)c(-c3ccc(Oc4ccc(Cl)c(Cl)c4)c(OC)c3)c3c(N)ncnn23)c1 [Example 16(3), 5-(4-(3,4-dichlorophenoxy)-3-methoxyphenyl)-7-(3-methoxyphenyl)-6-(3-(pyrrolidin-1-yl)propyl)pyrrolo[2,1-f][1,2,4]triazin-4-amine] | 78 | 917 | 0.012 | Lck[IC50]/Btk[IC50] (Lck): 40
CCN(CC)CC(=O)N1CCC(c2c(CCCN3CCCC3)c(-c3ccc(Oc4cccc(Cl)c4)c(OC)c3)c3c(N)ncnn23)CC1 [Example 21(1), 1-(4-(4-amino-5-(4-(3-chlorophenoxy)-3-methoxyphenyl)-6-(3-(pyrrolidin-1-yl)propyl)pyrrolo[2,1-f][1,2,4]triazin-7-yl)piperidin-1-yl)-2-(diethylamino)ethanone] |  |  | 0.022 | 
